# According to publication PMC5458078, “Global mapping of CARM1 substrates defines enzyme specificity and substrate recognition” (Nature Communications, 2017):
# Where two headings read alike, the source gives them in different places.
# B1: CARM1: coactivator-associated arginine methyltransferase 1 (protein)
# chain: MAAAAAAVGPGAGGAGSAVPGGAGPCATVSVFPGARLLTIGDANGEIQRHAEQQALRLEVRAGPDSAGIALYSHEDVCVFKCSVSRETECSRVGKQSFIITLGCNSVLIQFATPNDFCSFYNILKTCRGHTLERSVFSERTEESSAVQYFQFYGYLSQQQNMMQDYVRTGTYQRAILQNHTDFKDKIVLDVGCGSGILSFFAAQAGARKIYAVEASTMAQHAEVLVKSNNLTDRIVVIPGKVEEVSLPEQVDIIISEPMGYMLFNERMLESYLHAKKYLKPSGNMFPTIGDVHLAPFTDEQLYMEQFTKANFWYQPSFHGVDLSALRGAAVDEYFRQPVVDTFDIRILMAKSVKYTVNFLEAKEGDLHRIEIPFKFHMLHSGLVHGLAFWFDVAFIGSIMTVWLSTAPTEPLTHWYQVRCLFQSPLFAKAGDTLSGTCLLIANKRQSYDISIVAQVDQTGSKSSNLLDLKNPFFRYTGTTPSPPPGSHYTSPSENMWNTGSTYNLSSGMAVAGMPTAYDLSSVIASGSSVGHNNLIPLANTGIVNHTHSRMGSIMSTGIVQGSSGAQGSGGGSTSAHYAVNSQFTMGGPAISMASPMSIPTNTMHYGS
# modifications: left off: FLAG, end not stated, kept
# Tests used:
# histone substrate = settings: cited from earlier work
# Text: page 18: We agree with the reviewer’s assertion that proteomic experiments generally suffer from the abundance bias. However, we, and others, argue that analyses of post-translational modifications are less affected by this issue, as the immunoprecipitation and other methods of PTM enrichment rely on the abundance of the PTM itself, not the protein that bears it, i.e., a strongly modified low abundance protein is as likely to be pulled down as a lowly modified high abundance protein.
# MCF7 cells = assay: Quantitative nanoLC-MS/MS (TMT) of ADMA-containing peptides, CARM1 KO vs parental; type: cell-based, human; set-up: Fold change KO/WT: scale not given here
# MCF7 CARM1 KO cells = assay: Quantitative MS of ADMA-containing peptides in MCF7 CARM1 KO cells expressing CARM1 28-608 or CARM1 140-608, and in CARM1 KO; type: cell-based, human
# [1] = MCF7, CARM1 KO (KO1-KO3) vs wild type (WT1-WT3)
# [2] = CARM1 140-608 vs WT, mean of 3 replicates (log2 scale)
# [3] = KO vs WT, mean of 3 replicates (log2 scale)
# [4] = MCF7, CARM1 knockout vs wild type, n = 3 each
# [5] = ratio on log2 scale, mean of 3 replicates
# [6] = MCF7 CARM1 knockout vs wild type, 3 biological replicates each, values are on log2 scale
# [7] = mean, CARM1 140-608 versus WT (log2 scale)
# [8] = mean, CARM1 KO versus WT (log2 scale)
# [9] = ADMA-containing peptide, CARM1 knockout (KO) vs wild type (WT) MCF7 cells, 6-plex TMT experiment #1, three biological replicates each, sheet "MCF7"
# [10] = difference of log2 means, CARM1 140-608 vs WT
# [11] = difference of log2 means, KO vs WT
# [12] = ADMA-containing peptide, MCF7, CARM1 knockout (KO1-3) vs wild type (WT1-3), TMT 6-plex experiment #1
# [13] = log2 scale ratio, mean of n = 3
# [14] = CARM1 140-608 versus WT, mean of three replicates (log2)
# [15] = KO versus WT, mean of three replicates (log2)
molecule,measurement,setting,value
PRMT1: protein arginine methyltransferase 1,Km,"histone substrate; PRMT1, histone substrate, ref Pak et al., Biochem 2011",4.2 µM
AGIGVYWGPGHPLNVGIrLPGR,Fold change KO/WT,MCF7 cells; [1],-0.8432
same,CARM1 140-608/WT,MCF7 CARM1 KO cells; [2],-0.6349
same,KO/WT,MCF7 CARM1 KO cells; [3],-0.8432
GrGFAGVCGFGGPYGETVATGPYrAFR,Fold change KO/WT,MCF7 cells; [4],-1.965
same,CARM1 140-608/WT,MCF7 CARM1 KO cells; [5],-1.219
same,KO/WT,MCF7 CARM1 KO cells; [5],-1.965
APVFPGrGSYSNr,Fold change KO/WT,MCF7 cells; [6],0.2723
same,CARM1 140-608/WT,MCF7 CARM1 KO cells; [7],0.2637
same,KO/WT,MCF7 CARM1 KO cells; [8],0.3482
LFIGGLSFETTDDSLr,Fold change KO/WT,MCF7 cells; [4],-0.1032
same,CARM1 140-608/WT,MCF7 CARM1 KO cells; [7],-0.1871
same,KO/WT,MCF7 CARM1 KO cells; [8],0.1666
LLGQRPGPYDRPIGGrGGYYGAGR,Fold change KO/WT,MCF7 cells; [6],-0.08078
same,CARM1 140-608/WT,MCF7 CARM1 KO cells; [7],0.09661
same,KO/WT,MCF7 CARM1 KO cells; [8],0.2187
SLCASTLTVSSGSSrGSLASSrGSLASSR,Fold change KO/WT,"MCF7 cells; CARM1 KO vs wild type MCF7 cells, 3 biological replicates each",-0.6221
same,CARM1 140-608/WT,"MCF7 CARM1 KO cells; CARM1 140-608 versus WT, difference of mean log2 values",-0.3572
same,KO/WT,"MCF7 CARM1 KO cells; CARM1 KO versus WT, difference of mean log2 values",-0.04724
APAGGSLGrALMR,Fold change KO/WT,MCF7 cells; [9],-0.2145
same,CARM1 140-608/WT,MCF7 CARM1 KO cells; [10],-0.03816
same,KO/WT,MCF7 CARM1 KO cells; [11],0.3587
APGPrGSYLGGYSAGrGIYSR,Fold change KO/WT,MCF7 cells; [1],0.2541
same,CARM1 140-608/WT,MCF7 CARM1 KO cells; [2],0.2879
same,KO/WT,MCF7 CARM1 KO cells; [3],0.5206
LSAETWDLLrLPLER,Fold change KO/WT,MCF7 cells; [4],-3.314
same,CARM1 140-608/WT,MCF7 CARM1 KO cells; [7],-2.21
same,KO/WT,MCF7 CARM1 KO cells; [8],-3.314
TAAALAPASLTSArMAPALSGANLTSPrVPLSAYER,Fold change KO/WT,MCF7 cells; [12],-3.829
same,CARM1 140-608/WT,MCF7 CARM1 KO cells; [13],-2.654
same,KO/WT,MCF7 CARM1 KO cells; [13],-3.829
TPGQPGPQrFDGPPGQQVQPrFDGVPQrFDGPQHQQASR,Fold change KO/WT,MCF7 cells; [9],-1.547
same,CARM1 140-608/WT,MCF7 CARM1 KO cells; [14],-1.05
same,KO/WT,MCF7 CARM1 KO cells; [15],-1.824
LAMDFGGAGAAQQGLTDSCQSGGVPTAVQNLAPrAAVAAAAPrAVAPYK,Fold change KO/WT,MCF7 cells; [9],-4.352
same,CARM1 140-608/WT,MCF7 CARM1 KO cells; [14],-1.57
same,KO/WT,MCF7 CARM1 KO cells; [15],-4.352
EVVrYLGGSGGAGGR,Fold change KO/WT,MCF7 cells; [1],0.2966
same,CARM1 140-608/WT,MCF7 CARM1 KO cells; [2],-0.0149
same,KO/WT,MCF7 CARM1 KO cells; [3],0.2966
ELAPrAHVLSK,Fold change KO/WT,MCF7 cells; [4],-2.404
same,CARM1 140-608/WT,MCF7 CARM1 KO cells; [7],-1.733
same,KO/WT,MCF7 CARM1 KO cells; [8],-2.404
KLFIGGLSFETTDDSLr,Fold change KO/WT,MCF7 cells; [4],-0.1026
same,CARM1 140-608/WT,MCF7 CARM1 KO cells; [7],-0.2797
same,KO/WT,MCF7 CARM1 KO cells; [8],0.2164
TNRPGISTTDrGFPrArYR,Fold change KO/WT,"MCF7 cells; MCF7, CARM1 KO vs WT, three biological replicates each",-0.1094
same,CARM1 140-608/WT,"MCF7 CARM1 KO cells; CARM1 140-608 vs WT, mean of 3 replicates, log2",-0.4847
same,KO/WT,"MCF7 CARM1 KO cells; KO vs WT, mean of 3 replicates, log2",-0.1094
RAPAGGSLGrALMR,Fold change KO/WT,MCF7 cells; [9],0.1845
same,CARM1 140-608/WT,MCF7 CARM1 KO cells; [10],0.2074
same,KO/WT,MCF7 CARM1 KO cells; [11],0.5402
VrATSVLPrYGPPCLFK,Fold change KO/WT,MCF7 cells; [12],-2.652
same,CARM1 140-608/WT,MCF7 CARM1 KO cells; [13],-1.769
same,KO/WT,MCF7 CARM1 KO cells; [13],-2.652
FIQPrPTLNQPPPPLIRPANSMPPR,Fold change KO/WT,MCF7 cells; [1],-1.409
same,CARM1 140-608/WT,MCF7 CARM1 KO cells; [2],0.5669
same,KO/WT,MCF7 CARM1 KO cells; [3],-1.409
B1,Km,"histone substrate; CARM1, natural histone substrate, ref Jacques et al., 2016",0.15 µM
